Each structure is given as a SMILES string.

For the experiment, the target named is Myc/Max binding to DNA (Homo sapiens, UniProt P01106). The experiment is described as follows: Electrophoretic mobility shift assay (EMSA) of Myc/Max binding to DNA. The class given is biochemical. The conditions noted are these: EMSA, 100 uM test compound; read-out: Bound DNA (%) (100uM). Here is the method: We also tested our best hit compound Min9 (NUCC-0176234) and newly synthesized analogs for effects of these compounds on Myc/Max binding to DNA in electrophoretic mobility shift assays (EMSAs). (See FIG. 5a and FIG. 5b). We expected the active compounds to impair Myc/Max binding to DNA. Several strucutural analogs of Min9 were tested over multiple doses for inhibiting Myc-DNA binding and we observed a dose-dependent inhibition. (See FIG. 5c).
Additional compounds were synthesized and tested in the EMSA assay at concentrations of 200 μM, 100 μM, and 50 μM.
(In EMSA bound probe runs differently from free probe, usually more slowly.)

Chain of Myc/Max binding to DNA (P01106 whole entry): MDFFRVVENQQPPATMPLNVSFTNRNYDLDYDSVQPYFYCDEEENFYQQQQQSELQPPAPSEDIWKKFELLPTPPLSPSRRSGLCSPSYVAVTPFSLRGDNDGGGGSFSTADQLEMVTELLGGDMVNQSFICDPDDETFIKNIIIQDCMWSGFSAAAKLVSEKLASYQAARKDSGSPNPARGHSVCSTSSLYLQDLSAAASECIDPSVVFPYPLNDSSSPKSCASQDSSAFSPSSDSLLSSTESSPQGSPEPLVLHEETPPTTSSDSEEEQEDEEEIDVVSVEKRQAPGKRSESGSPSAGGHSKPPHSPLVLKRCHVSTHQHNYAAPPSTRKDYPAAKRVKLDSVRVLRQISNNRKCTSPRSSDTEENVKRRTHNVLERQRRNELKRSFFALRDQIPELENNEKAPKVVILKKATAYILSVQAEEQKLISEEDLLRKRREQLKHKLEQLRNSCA

As for `CCc1ccc(Oc2c(-c3ccc(OCCc4ccc(Cl)cc4)cc3O)n[nH]c2C(F)(F)F)cc1` [compound 0196357], the remaining activity at 100 µM is 28%.

Turning to `CCc1ccc(Oc2c(-c3ccc(OCc4ccc(OC)cc4)cc3O)nn(C)c2C(F)(F)F)cc1` [compound 0196358], the remaining activity at 100 µM was determined as 98%.

Turning to `CCc1ccc(Oc2c(-c3ccc(OCc4ccc(OC)cc4)cc3O)n[nH]c2C(F)(F)F)cc1` [compound 0196359], the remaining activity at 100 µM stood at 57%.

For `Cn1nc(-c2ccc(OCc3ccc(Cl)cc3)cc2O)c(-c2cc(C(F)(F)F)cc(C(F)(F)F)c2)c1C(F)(F)F` [compound 0196360], the remaining activity at 100 µM was 100%.

For the compound `Cn1nc(C(F)(F)F)c(-c2cc(C(F)(F)F)cc(C(F)(F)F)c2)c1-c1ccc(OCc2ccc(Cl)cc2)cc1O` [compound 0196361], the remaining activity at 100 µM amounted to 0%.

For the compound `Oc1cc(OCc2ccc(Cl)cc2)ccc1-c1n[nH]c(C(F)(F)F)c1-c1cc(C(F)(F)F)cc(C(F)(F)F)c1` [compound 0196362], the remaining activity at 100 µM amounted to 33%.

`Oc1cc(OCc2ccc(Cl)cc2)ccc1-c1n[nH]c(C(F)(F)F)c1-c1ccccc1Cl` [compound 0196363]: the remaining activity at 100 µM came out at 5%.

On to `Cn1nc(-c2ccc(OCc3ccc(Cl)cc3)cc2O)c(-c2cccnc2)c1C(F)(F)F` [compound 0196364], for which the remaining activity at 100 µM worked out at 132%.

Regarding `Cn1nc(C(F)(F)F)c(-c2cccnc2)c1-c1ccc(OCc2ccc(Cl)cc2)cc1O` [compound 0196365], the remaining activity at 100 µM is 98%.

For the compound `Oc1cc(OCc2ccc(Cl)cc2)ccc1-c1n[nH]c(C(F)(F)F)c1-c1cccnc1` [compound 0196366], the remaining activity at 100 µM was 79%.

Consider `Oc1cc(OCc2ccc(Cl)cc2)ccc1-c1n[nH]cc1-c1ccccc1` [compound 0198293], for which the remaining activity at 100 µM amounted to 70%.

On to `Cn1cc(-c2ccccc2)c(-c2ccc(OCc3ccc(Cl)cc3)cc2O)n1` [compound 0198294], for which the remaining activity at 100 µM stood at 97%.

For the compound `Oc1cc(OCc2ccc(Cl)cc2)ccc1-c1n[nH]c(C(F)(F)F)c1-c1ccccc1` [compound 0198295], the remaining activity at 100 µM came to 0%.

Consider `Cn1nc(C(F)(F)F)c(-c2ccccc2)c1-c1ccc(OCc2ccc(Cl)cc2)cc1O` [compound 0198296], for which the remaining activity at 100 µM came to 74%.

As for `Cn1nc(-c2ccc(OCc3ccc(Cl)cc3)cc2O)c(-c2ccccc2)c1C(F)(F)F` [compound 0198297], the remaining activity at 100 µM amounted to 89%.

On to `Cc1[nH]nc(-c2ccc(OCc3ccc(Cl)cc3)cc2O)c1-c1ccccc1` [compound 0198298], for which the remaining activity at 100 µM is 88%.

`Cc1nn(C)c(-c2ccc(OCc3ccc(Cl)cc3)cc2O)c1-c1ccccc1` [compound 0198299]: the remaining activity at 100 µM was 90%.

With `Cc1c(-c2ccccc2)c(-c2ccc(OCc3ccc(Cl)cc3)cc2O)nn1C` [compound 0198300], the remaining activity at 100 µM came to 94%.

Turning to `CCc1[nH]nc(-c2ccc(OCc3ccc(Cl)cc3)cc2O)c1-c1ccccc1` [compound 0198301], the remaining activity at 100 µM came out at 105%.

With `CCc1nn(C)c(-c2ccc(OCc3ccc(Cl)cc3)cc2O)c1-c1ccccc1` [compound 0198302], the remaining activity at 100 µM is 100%.

As for `CCc1c(-c2ccccc2)c(-c2ccc(OCc3ccc(Cl)cc3)cc2O)nn1C` [compound 0198303], the remaining activity at 100 µM is 105%.

`COc1ccc(-c2c[nH]nc2-c2ccc(OCc3ccc(Cl)cc3)cc2O)cc1` [compound 0198304]: the remaining activity at 100 µM was found to be 98%.

`COc1ccc(-c2cn(C)nc2-c2ccc(OCc3ccc(Cl)cc3)cc2O)cc1` [compound 0198305]: the remaining activity at 100 µM stood at 106%.

As to `COc1ccc(-c2c(C)nn(C)c2-c2ccc(OCc3ccc(Cl)cc3)cc2O)cc1` [compound 0198306], the remaining activity at 100 µM is 105%.

On to `COc1ccc(-c2c(-c3ccc(OCc4ccc(Cl)cc4)cc3O)nn(C)c2C)cc1` [compound 0198307], for which the remaining activity at 100 µM is 111%.

Regarding `COc1cccc(-c2c[nH]nc2-c2ccc(OCc3ccc(Cl)cc3)cc2O)c1` [compound 0198308], the remaining activity at 100 µM stood at 92%.

For the compound `COc1cccc(-c2c(-c3ccc(OCc4ccc(Cl)cc4)cc3O)n[nH]c2C(F)(F)F)c1` [compound 0198309], the remaining activity at 100 µM was 2%.

On to `COc1cccc(-c2c(C(F)(F)F)nn(C)c2-c2ccc(OCc3ccc(Cl)cc3)cc2O)c1` [compound 0198310], for which the remaining activity at 100 µM turned out to be 86%.

For `COc1cccc(-c2c(-c3ccc(OCc4ccc(Cl)cc4)cc3O)nn(C)c2C(F)(F)F)c1` [compound 0198311], the remaining activity at 100 µM came to 105%.

Consider `COc1cccc(-c2c(-c3ccc(OCc4ccc(Cl)cc4)cc3O)n[nH]c2C)c1` [compound 0198312], for which the remaining activity at 100 µM was 104%.

As for `COc1cccc(-c2c(C)nn(C)c2-c2ccc(OCc3ccc(Cl)cc3)cc2O)c1` [compound 0198313], the remaining activity at 100 µM is 105%.

As to `COc1cccc(-c2c(-c3ccc(OCc4ccc(Cl)cc4)cc3O)nn(C)c2C)c1` [compound 0198314], the remaining activity at 100 µM is 104%.

Consider `CCc1[nH]nc(-c2ccc(OCc3ccc(Cl)cc3)cc2O)c1-c1cccc(OC)c1` [compound 0198315], for which the remaining activity at 100 µM came out at 105%.

For the compound `CCc1nn(C)c(-c2ccc(OCc3ccc(Cl)cc3)cc2O)c1-c1cccc(OC)c1` [compound 0198316], the remaining activity at 100 µM came to 101%.

On to `CCc1c(-c2cccc(OC)c2)c(-c2ccc(OCc3ccc(Cl)cc3)cc2O)nn1C` [compound 0198317], for which the remaining activity at 100 µM was 126%.

`Oc1cc(OCc2ccc(Cl)cc2)ccc1-c1n[nH]cc1-c1cc(C(F)(F)F)cc(C(F)(F)F)c1` [compound 0198318]: the remaining activity at 100 µM was 32%.

For the compound `Cn1cc(-c2cc(C(F)(F)F)cc(C(F)(F)F)c2)c(-c2ccc(OCc3ccc(Cl)cc3)cc2O)n1` [compound 0198319], the remaining activity at 100 µM was 96%.

As to `Oc1cc(OCc2ccc(Cl)cc2)ccc1-c1n[nH]cc1-c1cccnc1` [compound 0198320], the remaining activity at 100 µM was found to be 52%.

Regarding `Cn1cc(-c2cccnc2)c(-c2ccc(OCc3ccc(Cl)cc3)cc2O)n1` [compound 0198321], the remaining activity at 100 µM is 96%.

`Oc1cc(OCc2ccc(Cl)cc2)ccc1-c1n[nH]cc1-c1ccoc1` [compound 0198322]: the remaining activity at 100 µM came out at 28%.

On to `Cn1ncc(-c2ccoc2)c1-c1ccc(OCc2ccc(Cl)cc2)cc1O` [compound 0198323], for which the remaining activity at 100 µM was 70%.

In the case of `Cn1cc(-c2ccoc2)c(-c2ccc(OCc3ccc(Cl)cc3)cc2O)n1` [compound 0198324], the remaining activity at 100 µM was determined as 80%.

For the compound `Oc1cc(OCc2ccc(Cl)cc2)ccc1-c1n[nH]c(C(F)(F)F)c1-c1ccoc1` [compound 0198325], the remaining activity at 100 µM was 60%.

Take `COc1cccc(-c2cn(C)nc2-c2ccc(OCc3ccc(Cl)cc3)cc2O)c1` [compound 0198326]: the remaining activity at 100 µM was found to be 106%.

For the compound `Cc1cc(C)cc(-c2c[nH]nc2-c2ccc(OCc3ccc(Cl)cc3)cc2O)c1` [compound 0198352], the remaining activity at 100 µM amounted to 56%.

In the case of `Cc1cc(C)cc(-c2cn(C)nc2-c2ccc(OCc3ccc(Cl)cc3)cc2O)c1` [compound 0198353], the remaining activity at 100 µM amounted to 104%.

Turning to `Cc1cc(C)cc(-c2cnn(C)c2-c2ccc(OCc3ccc(Cl)cc3)cc2O)c1` [compound 0198354], the remaining activity at 100 µM was 85%.

As to `Cc1ccccc1-c1c[nH]nc1-c1ccc(OCc2ccc(Cl)cc2)cc1O` [compound 0198355], the remaining activity at 100 µM was found to be 75%.

As for `Cc1ccccc1-c1cn(C)nc1-c1ccc(OCc2ccc(Cl)cc2)cc1O` [compound 0198356], the remaining activity at 100 µM was found to be 118%.

Take `COc1ccccc1-c1c[nH]nc1-c1ccc(OCc2ccc(Cl)cc2)cc1O` [compound 0198357]: the remaining activity at 100 µM is 62%.

On to `COc1ccccc1-c1cn(C)nc1-c1ccc(OCc2ccc(Cl)cc2)cc1O` [compound 0198358], for which the remaining activity at 100 µM was determined as 93%.

In the case of `Cc1cc(C)c(-c2c[nH]nc2-c2ccc(OCc3ccc(Cl)cc3)cc2O)c(C)c1` [compound 0198359], the remaining activity at 100 µM came to 35%.

Regarding `Cc1cc(C)c(-c2cn(C)nc2-c2ccc(OCc3ccc(Cl)cc3)cc2O)c(C)c1` [compound 0198360], the remaining activity at 100 µM amounted to 101%.

`Cn1cc(-c2c[nH]nc2-c2ccc(OCc3ccc(Cl)cc3)cc2O)cn1` [compound 0198361]: the remaining activity at 100 µM is 87%.

On to `Cn1cc(-c2cn(C)nc2-c2ccc(OCc3ccc(Cl)cc3)cc2O)cn1` [compound 0198362], for which the remaining activity at 100 µM is 109%.

Turning to `N#Cc1ccc(-c2c(-c3ccc(OCc4ccc(Cl)cc4)cc3O)n[nH]c2C(F)(F)F)cc1` [compound 0198391], the remaining activity at 100 µM came to 4%.

Regarding `Cn1nc(C(F)(F)F)c(-c2ccc(C#N)cc2)c1-c1ccc(OCc2ccc(Cl)cc2)cc1O` [compound 0198392], the remaining activity at 100 µM came to 54%.

Take `Cn1nc(-c2ccc(OCc3ccc(Cl)cc3)cc2O)c(-c2ccc(C#N)cc2)c1C(F)(F)F` [compound 0198393]: the remaining activity at 100 µM stood at 71%.

In the case of `NC(=O)c1ccc(-c2c(-c3ccc(OCc4ccc(Cl)cc4)cc3O)n[nH]c2C(F)(F)F)cc1` [compound 0198394], the remaining activity at 100 µM came out at 30%.

As for `C/C(=N\N)c1ccc(-c2c(-c3ccc(OCc4ccc(Cl)cc4)cc3O)n[nH]c2C(F)(F)F)cc1` [compound 0198395], the remaining activity at 100 µM is 109%.

In the case of `CN/N=C(\C)c1ccc(-c2c(C(F)(F)F)nn(C)c2-c2ccc(OCc3ccc(Cl)cc3)cc2O)cc1` [compound 0198396], the remaining activity at 100 µM is 56%.

With `CN/N=C(\C)c1ccc(-c2c(-c3ccc(OCc4ccc(Cl)cc4)cc3O)nn(C)c2C(F)(F)F)cc1` [compound 0198397], the remaining activity at 100 µM stood at 82%.

The values are drawn from patent US20170253581A1, “SUBSTITUTED HETEROCYCLES AS c-MYC TARGETING AGENTS” (Northwestern University, priority 2016, published 2017).
